Earlier results, collected in patent publication US7608286B2, “Phyto-nutraceutical synergistic composition for hyperlipedemic condition” (priority 2006, dated 2009).

Columns and labels:
[1] = target: T1, lanosterol 14alpha -demethylase (Homo sapiens, UniProt Q16850)
T1 sequence (Q16850 1-509): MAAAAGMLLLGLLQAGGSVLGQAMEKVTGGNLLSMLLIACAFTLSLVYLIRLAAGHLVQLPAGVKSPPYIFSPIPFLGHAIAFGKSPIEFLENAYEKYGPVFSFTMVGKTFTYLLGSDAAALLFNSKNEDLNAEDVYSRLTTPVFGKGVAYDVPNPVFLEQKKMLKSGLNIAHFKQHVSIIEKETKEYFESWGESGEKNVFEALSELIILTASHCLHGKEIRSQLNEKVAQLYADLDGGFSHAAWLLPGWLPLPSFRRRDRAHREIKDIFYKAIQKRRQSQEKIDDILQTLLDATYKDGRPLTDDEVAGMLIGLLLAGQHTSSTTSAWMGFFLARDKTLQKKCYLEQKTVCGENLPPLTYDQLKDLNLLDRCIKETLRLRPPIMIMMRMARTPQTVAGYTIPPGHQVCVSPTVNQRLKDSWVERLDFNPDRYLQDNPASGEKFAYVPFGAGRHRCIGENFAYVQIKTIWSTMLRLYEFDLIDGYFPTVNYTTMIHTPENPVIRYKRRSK

rats = conditions: rat, in vivo
[2] = test system: participants having low blood concentrations of HDL-C; conditions: time-release
[3] = test system: normolipidemic and hyperlipidemic patients with low HDL-C levels; conditions: low dose (1.5 g/d)
[4] = test system: apolipoprotein E-null mice; conditions: evolving versus established
[5] = test system: cultured human liver (HepG2) cells
[6] = test system: bacterial resistance mechanism (multidrug pump); conditions: in the presence of 5′-MHC

Compound: C/C(=C\CC[C@@H](C)[C@H]1CC[C@@]2(C)C3=CC[C@H]4C(C)(C)C(=O)CC[C@]4(C)C3=CC[C@]12C)CO [ganoderol A]
- cholesterol biosynthesis / lanosterol 14alpha -demethylase [1]: inhibit cholesterol biosynthesis

Compound: Nc1ncnc2c1ncn2C[C@@H](O)[C@@H](O)C(=O)O [Eritadenine]
- S-adenosylmethionine (SAM):S-adenosylhomocysteine (SAH) ratio in the liver (rats): significantly decreased
- phosphatidylcholine (PC):phosphatidylethanolamine ratio in liver microsomes (rats): significantly decreased
- plasma cholesterol concentration (rats): significantly decreased

Compound: O=C(O)c1cccnc1 [nicotinic acid, Nicotinic acid]
- change of total cholesterol concentrations [2]: -20 mg/dL
- decrease of low-density lipoprotein cholesterol levels [2]: 13%
- decrease of the ratio of total cholesterol to HDL-C [2]: 25%
- decrease of total cholesterol concentrations [2]: 9%
- decrease of triglyceride levels [2]: 20%
- mean change of HDL-C levels [2]: +6 mg/dl
- mean increase of HDL-C levels [2]: 18%
- average increase in HDL-C levels [3]: 20%
- triglyceride levels [3]: significantly lowers

Compound: (−)-epigallocatechin gallate [EGCG]
- atherosclerotic lesions [4]: differentially reduces evolving atherosclerotic lesions without influencing established atherosclerosis
- cellular cholesterol concentration lowered [5]: 28%
- cellular cholesterol synthesis [5]: significantly lowered
- increase of LDL receptor binding activity [5]: 3 fold

Compound: ganoderic acid
- cholesterol biosynthesis / lanosterol 14alpha -demethylase [1]: inhibit cholesterol biosynthesis

Compound: C/C(=C\CC[C@@H](C)[C@H]1CC[C@@]2(C)C3=CC[C@H]4C(C)(C)[C@@H](O)CC[C@]4(C)C3=CC[C@]12C)CO [ganoderol B]
- cholesterol biosynthesis / lanosterol 14alpha -demethylase [1]: inhibit cholesterol biosynthesis

Compound: C/C(C=O)=C\CC[C@@H](C)[C@H]1CC[C@@]2(C)C3=CC[C@H]4C(C)(C)C(=O)CC[C@]4(C)C3=CC[C@]12C [ganoderal A]
- cholesterol biosynthesis / lanosterol 14alpha -demethylase [1]: inhibit cholesterol biosynthesis

Compound: COc1cc([C@H]2Oc3cc(-c4cc(=O)c5c(O)cc(O)cc5o4)cc(OC)c3O[C@@H]2CO)ccc1O (racemic) [5′-MHC, 5′-methoxyhydnocarpin]
- accumulation of berberine in the cells [6]: strong increase
